# Target: T1, glucagon receptor (Homo sapiens, UniProt P47871)
# T1 construct: expressed in transfected cells; host or cells: Chinese Hamster Ovary cells (CHO-HGR), membranes
# Assay: glucagon receptor binding assay (125I-glucagon, CHO-HGR membranes)
# Settings: for IC50: 125I-glucagon, 60 min at room temperature, read-out: IC50
# In short: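 Membranes from CHO cells expressing glucagon receptor (10 ug protein) in Tris pH 7.4 buffer with EDTA, BSA and bacitracin, incubated with test compound and 125I-glucagon (9 fmol) 60 min at room temperature. Bound radioactivity counted after filtration; nonspecific binding defined with 1 μM native glucagon; 0.5% DMSO.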
# [1] = 20 μM, reported where 20 μM did not reduce glucagon binding by 50%
# T1 sequence (P47871 26-477): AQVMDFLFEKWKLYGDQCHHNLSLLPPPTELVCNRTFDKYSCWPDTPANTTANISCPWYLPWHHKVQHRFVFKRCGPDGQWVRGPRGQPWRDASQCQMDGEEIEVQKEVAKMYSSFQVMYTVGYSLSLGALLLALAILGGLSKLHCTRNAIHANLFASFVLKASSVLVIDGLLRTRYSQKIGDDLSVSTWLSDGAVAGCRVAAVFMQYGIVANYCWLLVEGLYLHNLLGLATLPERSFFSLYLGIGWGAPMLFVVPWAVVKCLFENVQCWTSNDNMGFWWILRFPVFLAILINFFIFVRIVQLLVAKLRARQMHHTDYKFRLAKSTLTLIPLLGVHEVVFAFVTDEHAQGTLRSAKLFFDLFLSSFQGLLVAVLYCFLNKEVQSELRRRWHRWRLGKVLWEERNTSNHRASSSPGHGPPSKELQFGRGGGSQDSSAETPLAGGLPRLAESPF
inhibition at 20 µM [1] [%],Compound,further results
37,"CCCCCc1c(C(C)C)nc(C(C)C)c(CNC)c1-c1ccc(F)cc1 [Example 120, 2,6-Diisopropyl-3-methylaminomethyl-4-(4-fluorophenyl)-5-pentyl-pyridine]",
26.2,"CCCCCc1c(C(C)C)nc(C(C)C)c(CN)c1-c1ccc(F)cc1 [Example 121, 2,6-Diisopropyl-3-aminomethyl-4-(4fluorophenyl)-5-pentylpyridine]",
7.54,"CCCCCc1c(C(C)C)nc(C(C)C)c(CN(C)C)c1-c1ccc(F)cc1 [Example 122, 2,6-Diisopropyl-3-(dimethylamino)methyl-4-(4-fluorophenyl)-5-pentyl-pyridine]",
49.2,"CCCCCc1c(C(C)C)nc(C(C)C)c(CNCC)c1-c1ccc(F)cc1 [Example 123, 2,6-Diisopropyl-3-(ethylamino)methyl-4-(4-fluorophenyl)-5-pentylpyridine]",
31.6,"CCC/C=C/c1c(C(C)C)nc(C(C)C)c(CO)c1-c1ccc(C(F)(F)F)cc1 [Example 125, 2,6-Diisopropyl-3-hydroxymethyl-4-[(4-trifluoromethyl)phenyl]-5(pent-1-enyl)pyridine]",
35.3,"CCCCCc1c(C(C)C)nc(C(C)C)c(CO)c1-c1ccc(C(F)(F)F)cc1 [Example 126, 2,6-Diisopropyl-3-hydroxymethyl-4-[(4-trifluoromethyl)phenyl]-5-pentylpyridine]",
45.5,"CCCC=Cc1c(C(C)C)nc(C(C)C)c(CO)c1-c1cccc(F)c1 [Example 127, 2,6-Diisopropyl-3-hydroxymethyl-4-(3-fluorophenyl)-5-(pent-1-enyl)-pyridine]",
,"CCCCCc1c(C(C)C)nc(C(C)C)c(CO)c1-c1cccc(F)c1 [Example 128, 2,6-Diisopropyl-3-hydroxymethyl-4-(3-fluorophenyl)-5-pentylpyridine]",IC50: 3 µM
,"CCCC=Cc1c(C(C)C)nc(C(C)C)c(CO)c1-c1ccc(C)cc1 [Example 129, 2,6-Diisopropyl-3-hydroxymethyl-4-(4-methylphenyl)-5-(Pent-1-enyl)-pyridine]",IC50: 1.5 µM
37.3,"CCCC=Cc1c(C(C)C)nc(C(C)C)c(CO)c1-c1ccc(CC)cc1 [Example 131, 2,6-Diisopropyl-3-hydroxymethyl-4-(4-ethylphenyl)-5-(pent-1-enyl)-pyridine]",
42.5,"CCCCCc1c(C(C)C)nc(C(C)C)c(CO)c1-c1ccc(CC)cc1 [Example 132, 2,6-Diisopropyl-3-hydroxymethyl-4-(4-ethylphenyl)-5-pentylpyridine]",
35.5,"CCCC=Cc1c(C(C)C)nc(C(C)C)c(CO)c1-c1ccc(C(C)C)cc1 [Example 133, 2,6-Diisopropyl-3-hydroxymethyl-4-(4-isopropylphenyl)-5-(pent-1-enyl)pyridine]",
34.4,"CCCCCc1c(C(C)C)nc(C(C)C)c(CO)c1-c1ccc(C(C)C)cc1 [Example 134, 2,6-Diisopropyl-3-hydroxymethyl-4-(4-isopropylphenyl)-5-pentylpyridine]",
4.64,"CCCC=Cc1c(C(C)C)nc(C(C)C)c(CO)c1-c1ccc(-c2ccccc2)cc1 [Example 135, 2,6-Diisopropyl-3-hydroxymethyl-4-[4-(phenyl)phenyl]-5-(pent-1-enyl)pyridine]",
,"CCCC=Cc1c(C(C)C)nc(C(C)C)c(CO)c1-c1ccccc1F [Example 137, 2,6-Diisopropyl-3-hydroxymethyl-4-(2-fluorophenyl)-5-(pent-1-enyl)-pyridine]",IC50: 11 µM
,"CCCCCc1c(C(C)C)nc(C(C)C)c(CO)c1-c1ccccc1F [Example 138, 2,6-Diisopropyl-3-hydroxymethyl-4-(2-fluorophenyl)-5-pentylpyridine]",IC50: 9 µM
,"CCCC=Cc1c(C(C)C)nc(C(C)C)c(CO)c1-c1cccc(C)c1 [Example 139, 2,6-Diisopropyl-3-hydroxymethyl-4-(3-methylphenyl)-5-(pent-1-enyl)-pyridine]",IC50: 17 µM
46.3,"CCCCCc1c(C(C)C)nc(C(C)C)c(CO)c1-c1cccc(C)c1 [Example 140, 2,6-Diisopropyl-3-hydroxymethyl-4-(3-methylphenyl)-5-pentylpyridine]",
34,"CCCC=Cc1c(C(C)C)nc(C(C)C)c(CO)c1-c1ccccc1C [Example 141, 2,6-Diisopropyl-3-hydroxymethyl-4-(2-methylphenyl)-5-(pent-1-enyl)-pyridine]",
33.1,"CCCCCc1c(C(C)C)nc(C(C)C)c(CO)c1-c1ccccc1C [Example 142, 2,6-Diisopropyl-3-hydroxymethyl-4-(2-methylphenyl)-5pentylpyridine]",
,"CCCC=Cc1c(C(C)C)nc(C(C)C)c(CO)c1-c1ccc(Cl)cc1 [Example 143, 2,6-Diisopropyl-3-hydroxymethyl-4-(4-chlorophenyl)-5-(pent-1-enyl)pyridine]",IC50: 0.9 µM

inhibition at 20 µM [1] [%],Compound,further results
,"CCCCCc1c(C(C)C)nc(C(C)C)c(CO)c1-c1ccc(Cl)cc1 [Example 144, 2,6-Diisopropyl-3-hydroxymethyl-4-(4-chlorophenyl)-5-pentylpyridine]",IC50: 0.8 µM
41.4,"CCCC=Cc1c(C(C)C)nc(C(C)C)c(CO)c1-c1cccc(Cl)c1 [Example 145, 2,6-Diisopropyl-3-hydroxymethyl-4-(3-chlorophenyl)-5-(pent-1-enyl)-pyridine]",
48.8,"CCCCCc1c(C(C)C)nc(C(C)C)c(CO)c1-c1cccc(Cl)c1 [Example 146, 2,6-Diisopropyl-3-hydroxymethyl-4-(3-chlorophenyl)-5-pentylpyridine]",
7.78,"CCCCCc1c(C(C)C)nc(C(C)C)c(CO)c1-c1ccc(Cl)cc1Cl [Example 148, 2,6-Diisopropyl-3-hydroxymethyl-4-(2,4-dichlorophenyl)-5-pentylpyridine]",
39,"CCCC=Cc1c(C(C)C)nc(C(C)C)c(CO)c1-c1ccc(Cl)c(Cl)c1 [Example 149, 2,6-Diisopropyl3-hydroxymethyl-4-(3,4-dichlorophenyl)-5-(pent-1-enyl)pyridine]",
,"CCCC=Cc1c(C(C)C)nc(C(C)C)c(CO)c1-c1ccc(F)cc1F [Example 150, 2,6-Diisopropyl-3-hydroxymethyl-4-(2,4-difluorophenyl)-5-(pent-1-enyl)pyridine]",IC50: 4.5 µM
25.4,"CCCC=Cc1c(C(C)C)nc(C(C)C)c(CO)c1-c1cccc(OCc2ccccc2)c1 [Example 152, 2,6-Diisopropyl-3-hydroxymethyl-4-(3-benzyloxyphenyl)-5-(pent-1-enyl)pyridine]",
,"CCCCCc1c(C(C)C)nc(C(C)C)c(CO)c1-c1cccc(O)c1 [Example 153, 2,6-Diisopropyl-3-hydroxymethyl-4-(3-hydroxyphenyl)-5-pentylpyridine]",IC50: 6 µM
26.1,"C#Cc1ccccc1-c1c(C=CCCC)c(C(C)C)nc(C(C)C)c1CO [Example 156, 2,6-Diisopropyl-3-hydroxymethyl-4-(2-ethynylphenyl)-5-(pent-1-enyl)-pyridine]",
,"CCCC=Cc1c(C(C)C)nc(C(C)C)c(CO)c1-c1ccc(F)c(F)c1 [Example 158, 2,6-diisopropyl-3-hydroxymethyl-4-(3,4-difluorophenyl)-5-(pent-1-enyl)pyridine]",IC50: 1.8 µM
,"CCCCCc1c(C(C)C)nc(C(C)C)c(CO)c1-c1ccc(F)c(F)c1 [Example 159, 2,6-Diisopropyl-3-hydroxymethyl-4-(3,4-difluorophenyl)-5-pentyl-pyridine]",IC50: 1.1 µM
21,"CCCC=Cc1c(C(C)C)nc(C(C)C)c(CO)c1-c1ccc(OCc2ccccc2)cc1 [Example 160, 2,6-Diisopropyl-3-hydroxymethyl-4-(4-benzyloxyphenyl)-5-(pent-1-enyl)pyridine]",
24,"CCCCCc1c(C(C)C)nc(C(C)C)c(CO)c1-c1ccc(O)cc1 [Example 161, 2,6-Diisopropyl-3-hydroxymethyl-4-(4-hydroxyphenyl)-5-pentylpyridine]",
13.9,"CCCC=Cc1c(C(C)C)nc(C(C)C)c(CO)c1-c1ccccc1OCc1ccccc1 [Example 162, 2,6-Diisopropyl-3-hydroxymethyl-4-(2-benzyloxyphenyl)-5-(pent-1-enyl)pyridine]",
,"CCCCCc1c(C(C)C)nc(C(C)C)c(CO)c1-c1ccccc1O [Example 163, 2,6-Diisopropyl-3-hydroxymethyl-4-(2-hydroxyphenyl)-5-pentylpyridine]",IC50: 0.5 µM
37.1,"CCCCCc1c(C(C)C)nc(C(C)C)c(CO)c1-c1ccc(OC)cc1 [Example 169, 2,6-Diisopropyl-3-hydroxymethyl-4-(4-methoxyphenyl)-5-pentyl-pyridine]",
45.5,"CCCC=Cc1c(C(C)C)nc(C(C)C)c(CO)c1-c1cccc(OC)c1 [Example 170, 2,6-Diisopropyl-3-hydroxymethyl-4-(3-methoxyphenyl)-5-(pent-1-enyl)pyridine]",
,"CCCCCc1c(C(C)C)nc(C(C)C)c(CO)c1-c1cccc(OC)c1 [Example 171, 2,6-Diisopropyl-3-hydroxymethyl-4-(3-methoxyphenyl)-5-pentylpyridine]",% Inhibition (20 μM) [1]: 48.37%
27.4,"CCCCCc1c(C(C)C)nc(C(C)C)c(CO)c1-c1ccccc1OC [Example 173, 2,6-Diisopropyl-3-hydroxymethyl-4-(2-methoxyphenyl)-5-pentylpyridine]",
33.4,"CCCC=Cc1c(C(C)C)nc(C(C)C)c(CO)c1-c1ccc(SC)cc1 [Example 174, 2,6-Diisopropyl-3hydroxymethyl-4-[4-(methylthio)phenyl]-5-(pent-1-enyl)pyridine]",
40.9,"CCCC=Cc1c(C(C)C)nc(C(C)C)c(CO)c1-c1ccc([S+](C)[O-])cc1 (stereo not drawn) [Example 175, 2,6-Diisopropyl-3-hydroxymethyl-4-[4-(methylsulfinyl)phenyl]-5-(pent-1-enyl)pyridine]",

# Reference: patent publication US6218431A, “Substituted biphenyls” (Bayer Corporation, priority 1997, dated 2001)
